In ChEMBL document CHEMBL6087394, “Immune Checkpoint-Modulating Photosensitizer That Targets BRD4 for Cancer Photoimmunotherapy” (J Med Chem, 2024):
pIC50: −log10 of the molar value. Active and inactive are the calls of the source. No cut-off for these calls is given here.

Key:
[1] = test system: MDA-MB-231; test: Induction of autophagy in human MDA-MB-231 cells assessed as increase in ratio of LC3-II to LC3-I preincubated with compound for 2 hrs followed by light irradiation with 660 nm 20 mW/cm2 for 10 mins and measured after 12 hrs by Western blot analysis; assay type: functional, cell-based; details: time 850.0 min
[2] = test system: 4T1; test: Antitumor activity against mouse 4T1 cells implanted in female BALB/c mouse assessed as increase in CD8+ T cells at 2.5 mg/kg, iv preincubated with compound for 3 hrs followed by light irradiation with 660 nm 300 mW/cm2 for 3 min and measured after 14 days; assay type: functional, organism-based; details: time 20343.0 min
[3] = test system: MDA-MB-231; test: Cytotoxicity against human MDA-MB-231 cells assessed as reduction in cell viability upto 10 uM incubated for 24 hrs by CCK-8 assay; assay type: functional, cell-based
[4] = test system: MDA-MB-231; test: Induction of ferroptosis in human MDA-MB-231 cells assessed as reduction in GPX4 expression at 0.1 uM preincubated with compound for 2 hrs followed by light irradiation with 660 nm 20 mW/cm2 for 10 mins and measured after 12 hrs by Western blot analysis; assay type: functional, cell-based; details: time 850.0 min
[5] = Photophysical property of the compound assessed as maximum fluorescent emission peak at by fluorescence at 10 uM spectrophotometric analysis; assay type: physicochemical
[6] = Toxicity in BALB/c mouse implanted with mouse 4T1 cells assessed as spleen damage at 2.5 mg/kg, iv measured after 14 days by H and E staining based analysis; assay type: organism-based; details: in vivo, 336 h, time 14 day
[7] = Induction of singlet oxygen production in PBS buffer assessed as decrease in absorption signal at 410 nm under light irradiation with 660 nm 20 mW/cm2 by ABDA based microplate reader analysis relative to control; assay type: functional
[8] = test system: MDA-MB-231; test: Effect on IL-1beta level in human MDA-MB-231 cells preincubated with compound for 2 hrs followed by light irradiation with 660 nm 20 mW/cm2 for 10 mins and measured after 24 hrs by ELISA analysis; assay type: functional, cell-based; details: time 1570.0 min
[9] = test system: MDA-MB-231; test: Induction of ferroptosis in human MDA-MB-231 cells assessed as decrease in GSH level at 0.1 uM preincubated with compound for 2 hrs followed by light irradiation with 660 nm 20 mW/cm2 for 10 mins and measured after 12 hrs; assay type: functional, cell-based; details: time 850.0 min
[10] = Toxicity in BALB/c mouse implanted with mouse 4T1 cells assessed as kidney damage at 2.5 mg/kg, iv measured after 14 days by H and E staining based analysis; assay type: organism-based; details: in vivo, 336 h, time 14 day
[11] = test system: MDA-MB-231; test: Induction of DNA damage in human MDA-MB-231 cells assessed as upregulation of gamma-H2AX expression preincubated with compound for 2 hrs followed by light irradiation with 660 nm 20 mW/cm2 for 10 mins and measured after 24 hrs by Western blot analysis; assay type: functional, cell-based; details: time 1570.0 min
[12] = Toxicity in BALB/c mouse implanted with mouse 4T1 cells assessed as heart damage at 2.5 mg/kg, iv measured after 14 days by H and E staining based analysis; assay type: organism-based; details: in vivo, 336 h, time 14 day
[13] = test system: MDA-MB-231; test: Induction of pyroptosis in human MDA-MB-231 cells assessed as cell swelling at 0.25 uM preincubated with compound for 2 hrs followed by light irradiation with 660 nm 20 mW/cm2 for 10 mins and measured after 24 hrs by CLSM imaging analysis; assay type: functional, cell-based; details: time 1570.0 min
[14] = test system: MDA-MB-231; test: Induction of pyroptosis in human MDA-MB-231 cells assessed as increase in cleaved caspase -3 expression at 0.1 uM preincubated with compound for 2 hrs followed by light irradiation with 660 nm 20 mW/cm2 for 10 mins and measured after 24 hrs by Western blot analysis; assay type: functional, cell-based; details: time 1570.0 min
[15] = Toxicity in BALB/c mouse implanted with mouse 4T1 cells assessed as liver damage at 2.5 mg/kg, iv measured after 14 days by H and E staining based analysis; assay type: organism-based; details: in vivo, 336 h, time 14 day
[16] = Drug uptake in human MDA-MB-231 cells assessed as increase in fluorescence intensity at 2.5 uM measured after 2 hrs by flow cytometry analysis; assay type: ADME, cell-based; details: mda-mb-231, 2 h
[17] = test system: MDA-MB-231; test: Induction of cell death in human MDA-MB-231 cells assessed as increase in bright red signal at 0.5 uM preincubated with compound for 2 hrs followed by light irradiation with 660 nm 20 mW/cm2 for 10 mins and measured after 12 hrs by Calcein-AM staining based inverted fluorescence microscopic analysis; assay type: functional; details: time 850.0 min
[18] = test system: MDA-MB-231; test: Induction of pyroptosis in human MDA-MB-231 cells assessed as increase in GSDME-N expression at 0.25 uM preincubated with compound for 2 hrs followed by light irradiation with 660 nm 20 mW/cm2 for 10 mins and measured after 24 hrs by Western blot analysis; assay type: functional, cell-based; details: time 1570.0 min
[19] = test system: MDA-MB-231; test: Induction of pyroptosis in human MDA-MB-231 cells assessed as effect on cleaved GSDMD expression at 0.1 uM preincubated with compound for 2 hrs followed by light irradiation with 660 nm 20 mW/cm2 for 10 mins and measured after 24 hrs by Western blot analysis; assay type: functional, cell-based; details: time 1570.0 min
[20] = test system: MDA-MB-231; test: Induction of autophagy in human MDA-MB-231 cells assessed as downregulation p62 expression preincubated with compound for 2 hrs followed by light irradiation with 660 nm 20 mW/cm2 for 10 mins and measured after 24 hrs by Western blot analysis; assay type: functional, cell-based; details: time 1570.0 min
[21] = test system: 4T1; test: Antitumor activity against mouse 4T1 cells implanted in female BALB/c mouse assessed as inhibition of tumor growth at 2.5 mg/kg, iv; assay type: functional, organism-based
[22] = test system: MDA-MB-231; test: Effect on LDH level in human MDA-MB-231 cells preincubated with compound for 2 hrs followed by light irradiation with 660 nm 20 mW/cm2 for 10 mins and measured after 24 hrs; assay type: functional, cell-based; details: time 1570.0 min
[23] = molecular target: T1, Bromodomain-containing protein 4 (Homo sapiens, UniProt O60885); test: Inhibition of BRD4 (unknown origin) incubated for 120 mins by TR-FRET assay
[24] = Biodistribution in female BALB/c mouse tumor at 2.5 mg/kg, iv measured at 3 hrs; assay type: ADME, organism-based, Neoplasm; details: in vivo
[25] = test system: MDA-MB-231; test: Induction of ROS production in human MDA-MB-231 cells assessed as increase in green fluorescent intensity at 0.1 uM preincubated with compound for 2 hrs followed by light irradiation for 10 mins in presence of tiron by DCFH-DA probe based flow cytometry; assay type: functional, cell-based; details: time 130.0 min
[26] = test system: MDA-MB-231; test: Down regulation of PD-L1 expression in human MDA-MB-231 cells incubated for 24 hrs by Western blot analysis; assay type: functional, cell-based; details: dose 0.5-2.5 µM
[27] = test system: MDA-MB-231; test: Induction of pyroptosis in human MDA-MB-231 cells assessed as formation of large bubbles on plasma membrane at 0.25 uM preincubated with compound for 2 hrs followed by light irradiation with 660 nm 20 mW/cm2 for 10 mins and measured after 24 hrs by CLSM imaging analysis; assay type: functional, cell-based; details: time 1570.0 min
[28] = test system: MDA-MB-231; test: […] in human MDA-MB-231 cells assessed as decrease in RAD51 expression preincubated with compound for 2 hrs followed by light irradiation with 660 nm 20 mW/cm2 for 10 mins and measured after 24 hrs by Western blot analysis; assay type: functional, cell-based; details: time 1570.0 min
[29] = molecular target: T1, Bromodomain-containing protein 4; test: Inhibition of BRD4 in human MDA-MB-231 cells assessed as downregulation of c-Myc expression at 0.5 to 2.5 uM incubated for 24 hrs by Western blot analysis; assay type: cell-based; details: dose 0.5-2.5 µM
[30] = Toxicity in BALB/c mouse implanted with mouse 4T1 cells at 2.5 mg/kg, iv; assay type: organism-based; details: in vivo
[31] = test system: 4T1; test: Antitumor activity against mouse 4T1 cells implanted in female BALB/c mouse assessed as increase in T cell infiltration at 2.5 mg/kg, iv preincubated with compound for 3 hrs followed by light irradiation with 660 nm 300 mW/cm2 for 3 min and measured after 14 days; assay type: functional, organism-based; details: time 20343.0 min
[32] = Induction of ROS generation in PBS buffer assessed as increase in superoxide anion radical level by measuring increase in DHR123 fluorescence intensity at 5 uM irradiated with 660 nm 20 mW/cm2 light for upto 7 mins by DHR123 probe based fluorescence spectra analysis; assay type: functional
[33] = test system: MDA-MB-231; test: Induction of ROS production in human MDA-MB-231 cells assessed as increase in green fluorescent intensity at 0.1 uM preincubated with compound for 2 hrs followed by light irradiation for 10 mins in presence of NaN3 by DCFH-DA probe based flow cytometry; assay type: functional, cell-based; details: time 130.0 min
[34] = test system: MDA-MB-231; test: Down regulation of PD-L1 expression in human MDA-MB-231 cells at 0.1 uM preincubated with compound for 2 hrs followed by light irradiation with 660 nm 20 mW/cm2 for 10 mins and measured after 24 hrs by Western blot analysis; assay type: functional, cell-based; details: time 1570.0 min
[35] = Biodistribution in female BALB/c mouse tumor at 2.5 mg/kg, iv measured at 1 hr; assay type: ADME, organism-based, Neoplasm; details: in vivo
[36] = Phototoxicity against human MDA-MB-231 cells assessed as reduction in cell viability preincubated with compound for 2 hrs followed by light irradiation with 660 nm 20 mW/cm2 for 10 mins and measured after 24 hrs by CCK-8 assay; assay type: functional, cell-based; details: MDA-MB-231, light or radiation study
[37] = test system: 4T1; test: Antitumor activity against mouse 4T1 cells implanted in female BALB/c mouse assessed as increase in CD4+ T cells at 2.5 mg/kg, iv preincubated with compound for 3 hrs followed by light irradiation with 660 nm 300 mW/cm2 for 3 min and measured after 14 days; assay type: functional, organism-based; details: time 20343.0 min
[38] = test system: 4T1; test: Antitumor activity against mouse 4T1 cells implanted in female BALB/c mouse assessed as inhibition of tumor growth at 2.5 mg/kg, iv preincubated with compound for 3 hrs followed by light irradiation with 660 nm 300 mW/cm2 for 3 min and measured after 14 days; assay type: functional, organism-based; details: time 20343.0 min
[39] = test system: MDA-MB-231; test: Induction of cell death in human MDA-MB-231 cells assessed as increase in HMGB1 release in nucleus by immunofluorescence staining based analysis; assay type: functional
[40] = test system: MDA-MB-231; test: Induction of ferroptosis in human MDA-MB-231 cells assessed as increase in intracellular LPO accumulation by measuring green fluorescence intensity at 0.1 uM preincubated with compound for 2 hrs followed by light irradiation with 660 nm 20 mW/cm2 for 10 mins and measured after 12 hrs; assay type: functional, cell-based; details: time 850.0 min
[41] = test system: MDA-MB-231; test: Induction of pyroptosis in human MDA-MB-231 cells assessed as effect on caspase-1 expression at 0.1 uM preincubated with compound for 2 hrs followed by light irradiation with 660 nm 20 mW/cm2 for 10 mins and measured after 24 hrs by Western blot analysis; assay type: functional, cell-based; details: time 1570.0 min
[42] = test system: MDA-MB-231; test: Induction of ROS production in human MDA-MB-231 cells assessed as increase in green fluorescent intensity at 0.1 uM preincubated with compound for 2 hrs followed by light irradiation for 10 mins by DCFH-DA probe based flow cytometry; assay type: functional, cell-based; details: time 130.0 min

For CCN(CC)c1ccc2nc3c(cc(NCc4ccc(NC(=O)C[C@H]5N=C(c6ccc(Cl)cc6)c6c(sc(C)c6C)-n6c(C)nnc65)cc4)c4ccccc43)[s+]c2c1.[Cl-], the Activity [1] was “Active”, the Activity [2] was “Active” and the Activity [3] was “Active”. For the same molecule, the Activity [4] was “Active”, the Activity [5] was “Active” and the Activity [6] was “Non-toxic”. The Activity [7] was “Active”, the Activity [8] was “Active” and the Activity [9] was “Active”. For the same molecule, the Activity [10] was “Non-toxic”, the Activity [11] was “Active” and the Activity [12] was “Non-toxic”. The Activity [13] was “Active”, the Activity [14] was “Active” and the Activity [15] was “Non-toxic”. The Drug uptake [16] was “Active”, the Activity [17] was “Active” and the Activity [18] was “Active”. For the same molecule, the Activity [19] was “inactive”, the Activity [20] was “Active” and the Activity [21] was “Active”. The Activity [22] was “Active”, the pIC50 [23] was 7.35 and the Drug uptake [24] was “Active”. For the same molecule, the Activity [25] was “Active”, the Activity [26] was “Dose-dependent-effect” and the Activity [27] was “Active”. The Activity [28] was “Active”, the inhibition [29] was “Active” and the Activity [30] was “Non-toxic”. The Activity [31] was “Active”, the Activity [32] was “Active” and the Activity [33] was “inactive”. The Activity [34] was “Active”, the Drug uptake [35] was “Active” and the pIC50 [36] was 6.96. For the same molecule, the Activity [37] was “Active”, the Activity [38] was “Active” and the Activity [39] was “Active”. The Activity [40] was “Active”, the Activity [41] was “inactive” and the Activity [42] was “Active”.
